Source: patent US7994209B2, “3-phenoxymethylpyrrolidine compounds” (Theravance, Inc., priority 2009, dated 2011)

Assays:
[1] = target: T1, hSERT (Homo sapiens, UniProt P31645); assay: hSERT neurotransmitter uptake assay (3H-5-HT), Assay 2; type: cell-based; parameters: expressed in transfected cells; host or cells: HEK-293; details: serotonin reuptake inhibition, 3H-5-HT uptake, HEK-293 hSERT cells (values without asterisk); read-out: SERT pIC50 (converted)
[2] = target: T1, hSERT; assay: hSERT membrane radioligand binding assay (3H-citalopram), Assay 1; details: SERT pKi, hSERT HEK-293 membranes, 1.0 nM 3H-citalopram; values given as lower bounds
[3] = target: T2, hNET (Homo sapiens, UniProt P23975); assay: hNET membrane radioligand binding assay (3H-nisoxetine), Assay 1
Protocol: Membrane radioligand binding assays were used to measure inhibition of labeled ligand (^3H-citalopram or ^3H-nisoxetine or ^3H-WIN35428) binding to membranes prepared from cells expressing the respective human recombinant transporter (hSERT or hNET or hDAT) in order to determine the pKi values of test compounds at the transporters.
Recombinant human embryonic kidney (HEK-293) derived cell lines stably transfected with hSERT or hNET, respectively, were grown in DMEM medium supplemented with 10% dialyzed FBS (for hSERT) or FBS (for hNET), 100 μg/mL penicillin, 100 μg/mL streptomycin, 2 mM L-glutamine and 250 μg/mL of the aminoglycoside antibiotic G418, in a 5% CO2 humidified incubator at 37° C. When cultures reached 80% confluence, the cells were washed thoroughly in PBS (without Ca^2+ and Mg^2+) and lifted with 5 mM EDTA in PBS. Cells were pelleted by centrifugation, resuspended in lysis buffer (10 mM Tris-HCl, pH7.5 containing 1 mM EDTA), homogenized, pelleted by centrifugation, then resuspended in 50 mM Tris-HCl, pH 7.5 and 10% sucrose at 4° C. Protein concentration of the membrane suspension was determined using a Bio-Rad Bradford Protein Assay kit. Membranes were snap frozen and stored at −80° C.
Binding assays were performed in a 96-well assay plate in a total volume of 200 μl assay buffer (50 mM Tris-HCl, 120 mM NaCl, 5 mM KCl, pH 7.4) with 0.5, 1, and 3 μg membrane protein, for SERT, NET and DAT, respectively.
Stock solutions (10 mM in DMSO) of test compound were prepared and serial dilutions made using Dilution Buffer (50 mM Tris-HCl, 120 mM NaCl, 5 mM KCl, pH 7.4, 0.1% BSA, 400 μM ascorbic acid).
Following a 60 minute incubation at 22° C. (or a period sufficient to reach equilibrium), the membranes were harvested by rapid filtration over a 96-well UniFilter GF/B plate, pretreated with 0.3% polyethyleneimine, and washed 6 times with 300 μl wash buffer (50 mM Tris-HCl, 0.9% NaCl, pH 7.5 at 4° C.). Plates were dried overnight at room temperature, approximately 45 μl of MicroScint™-20 (Perkin Elmer) added and bound radioactivity quantitated via liquid scintillation spectroscopy. Inhibition curves and saturation isotherms were analyzed using GraphPad Prism Software package (GraphPad Software, Inc., San Diego, Calif.). IC50 values were generated from concentration response curves using the Sigmoidal Dose Response (variable slope) algorithm in Prism GraphPad.

[4] = target: T2, hNET; assay: hNET neurotransmitter uptake assay (3H-NE), Assay 2; type: cell-based; parameters: expressed in transfected cells; host or cells: HEK-293; details: norepinephrine reuptake inhibition, 3H-NE uptake, HEK-293 hNET cells (values without asterisk); read-out: NET pIC50 (converted)

T2 sequence (P23975 whole entry): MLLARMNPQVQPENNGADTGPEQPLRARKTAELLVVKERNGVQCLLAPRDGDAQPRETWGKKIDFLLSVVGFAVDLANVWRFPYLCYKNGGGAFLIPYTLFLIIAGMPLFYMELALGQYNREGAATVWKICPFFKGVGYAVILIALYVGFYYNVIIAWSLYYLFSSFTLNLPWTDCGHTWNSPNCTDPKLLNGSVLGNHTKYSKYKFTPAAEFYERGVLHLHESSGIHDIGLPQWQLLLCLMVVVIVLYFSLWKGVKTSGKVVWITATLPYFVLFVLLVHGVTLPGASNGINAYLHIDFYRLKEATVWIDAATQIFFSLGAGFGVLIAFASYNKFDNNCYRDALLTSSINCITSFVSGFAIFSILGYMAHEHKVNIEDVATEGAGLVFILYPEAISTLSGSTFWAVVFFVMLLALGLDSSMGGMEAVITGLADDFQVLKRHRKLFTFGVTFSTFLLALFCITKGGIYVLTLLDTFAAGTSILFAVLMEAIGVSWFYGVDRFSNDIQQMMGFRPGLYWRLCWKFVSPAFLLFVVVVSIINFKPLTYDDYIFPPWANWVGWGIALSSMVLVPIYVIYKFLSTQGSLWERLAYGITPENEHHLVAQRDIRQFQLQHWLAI
T1 sequence (P31645 whole entry): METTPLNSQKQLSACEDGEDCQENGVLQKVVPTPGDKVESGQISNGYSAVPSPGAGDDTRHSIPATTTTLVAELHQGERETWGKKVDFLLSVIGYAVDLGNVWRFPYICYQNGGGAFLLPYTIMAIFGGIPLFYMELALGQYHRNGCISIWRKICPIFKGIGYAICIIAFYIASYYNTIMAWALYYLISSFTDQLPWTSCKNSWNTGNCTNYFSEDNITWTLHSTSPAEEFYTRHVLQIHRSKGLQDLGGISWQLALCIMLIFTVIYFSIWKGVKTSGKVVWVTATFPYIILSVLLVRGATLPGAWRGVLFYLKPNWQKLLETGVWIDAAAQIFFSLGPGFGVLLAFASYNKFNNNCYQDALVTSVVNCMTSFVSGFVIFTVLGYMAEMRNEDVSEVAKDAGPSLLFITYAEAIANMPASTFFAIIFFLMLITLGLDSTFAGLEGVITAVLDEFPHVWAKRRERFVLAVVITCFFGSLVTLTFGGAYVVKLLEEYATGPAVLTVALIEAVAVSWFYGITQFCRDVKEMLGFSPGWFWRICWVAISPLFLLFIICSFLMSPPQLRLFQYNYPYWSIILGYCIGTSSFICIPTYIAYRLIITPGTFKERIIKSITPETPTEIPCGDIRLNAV

Row | Compound | IC50 [1] [nM] | Ki [2] [nM] | Ki [3] [nM] | IC50 [4] [nM]
1 | Cc1ccc(O[C@@H](C(C)C)[C@H]2CCNC2)c(Cl)c1 [Example 6-24, (S)-3-[(S)-1-(2-Chloro-4-methylphenoxy)-2-methylpropyl]pyrrolidine] | ≤ 10 | ≤ 10 | ≤ 10 | ≤ 10
2 | CC(C)[C@H](Oc1c(F)cc(Cl)cc1Cl)[C@H]1CCNC1 [Example 6-30, (S)-3-[(S)-1-(2,4-Dichloro-6-fluorophenoxy)-2-methylpropyl]pyrrolidine] | ≤ 10 | ≤ 10 | ≤ 10 | ≤ 10
3 | CC(C)[C@H](Oc1c(F)ccc(Cl)c1Cl)[C@H]1CCNC1 [Example 6-34, (S)-3-[(S)-1-(2,3-Dichloro-6-fluorophenoxy)-2-methylpropyl]pyrrolidine] | ≤ 10 | ≤ 10 | ≤ 10 | ≤ 10
4 | CC(C)[C@H](Oc1c(Cl)ccc(Cl)c1Cl)[C@H]1CCNC1 [Example 6-35, (S)-3-[(S)-2-Methyl-1-(2,3,6-trichlorophenoxy)-propyl]-pyrrolidine] | ≤ 10 | ≤ 10 | ≤ 10 | ≤ 10
5 | CC(C)[C@H](Oc1c(F)ccc(F)c1Cl)[C@H]1CCNC1 [Example 6-36, (S)-3-[(S)-1-(2-Chloro-3,6-difluorophenoxy)-2-methylpropyl]pyrrolidine] | ≤ 100 | ≤ 10 | ≤ 10 | ≤ 10
6 | CC(C)[C@H](Oc1c(Cl)c(F)cc(F)c1Cl)[C@H]1CCNC1 [Example 6-38, (S)-3-[(S)-1-(2,6-Dichloro-3,5-difluorophenoxy)-2-methylpropyl]pyrrolidine] | ≤ 100 | ≤ 10 | ≤ 10 | ≤ 10
7 | Cc1c(Cl)cccc1O[C@@H](C(C)C)[C@H]1CCNC1 [Example 6-39, (S)-3-[(S)-1-(3-Chloro-2-methylphenoxy)-2-methylpropyl]pyrrolidine] | ≤ 10 | ≤ 10 | ≤ 10 | ≤ 10
8 | Cc1c(Cl)cccc1O[C@H](C(C)C)[C@H]1CCNC1 [Example 6-40, (S)-3-[(R)-1-(3-Chloro-2-methylphenoxy)-2-methylpropyl]pyrrolidine] | ≤ 10 | ≤ 10 | ≤ 10 | ≤ 10
9 | Cc1cccc(O[C@H](C(C)C)[C@H]2CCNC2)c1C [Example 6-43, (S)-3-[(R)-1-(2,3-Dimethylphenoxy)-2-methylpropyl]pyrrolidine] | ≤ 10 | ≤ 10 | ≤ 10 | ≤ 10
10 | Cc1cc(Cl)ccc1O[C@@H](C(C)C)[C@H]1CCNC1 [Example 6-45, (S)-3-[(S)-1-(4-Chloro-2-methylphenoxy)-2-methylpropyl]pyrrolidine] | ≤ 10 | ≤ 10 | ≤ 10 | ≤ 10
11 | COc1cc(Cl)ccc1O[C@@H](C(C)C)[C@H]1CCNC1 [Example 6-47, (S)-3-[(S)-1-(4-Chloro-2-methoxyphenoxy)-2-methylpropyl]pyrrolidine] | ≤ 10 | ≤ 10 | ≤ 10 | ≤ 10
12 | CC(C)C(Oc1ccc(Cl)cc1C(F)(F)F)C1CCNC1 (centres unmarked) [Example 6-50, 3-[1-(4-Chloro-2-trifluoromethylphenoxy)-2-methylpropyl]pyrrolidine] | ≤ 100 | ≤ 10 | ≤ 10 | ≤ 10
13 | CC(C)[C@H](Oc1ccc(Cl)c(F)c1)[C@H]1CCNC1 [Example 6-56, (S)-3-[(S)-1-(4-Chloro-3-fluorophenoxy)-2-methylpropyl]pyrrolidine] | ≤ 10 | ≤ 10 | ≤ 10 | ≤ 10
14 | CC(C)[C@H](Oc1ccc(Cl)c(Cl)c1)[C@H]1CCNC1 [Example 6-62, (S)-3-[(S)-1-(3,4-Dichlorophenoxy)-2-methylpropyl]pyrrolidine] | ≤ 10 | ≤ 10 | ≤ 10 | ≤ 10
